Measured values taken from patent publication US20130165368A1, “ANTIMICROBIAL COMPOUNDS” (priority 2010, published 2013).
In brackets after ≈: the same amount, converted by molar mass.

System: Enterococcus faecium (VRE) NCTC 12952
Experiment: MIC agar dilution, VRE strain 30
Type: cell-based
Settings: 22 hrs
Description: (§1) Molar equivalent concentrations were used to allow comparison between compounds of differing molecular mass. Due to weighing difficulties, any compound in solid form was melted in a water bath prior to dilution. To make ten-times strength concentrations, which takes into account agar dilution, 0.0352 mmol of each compound was weighed into plastic universal bottles and 4 mL of sterile distilled water (SDW) was added. To produce a homogenous emulsion the universals were vortexed; once achieved the emulsions were serial diluted by adding 2 mL to 2 mL of SDW.
(§2) For every 100 mL of Isosensitest agar (IST) (CM0471; Oxoid, Basingstoke, England), 3.1 g of the IST powder was added to 100 mL SDW (as per manufacturer's instructions) and sterilised for 15 minutes at 121° C. Once sterilised, the molten agar was cooled to 50° C. in a water-bath. Subsequently 4.8 g of CCEY powder (BC2160; Bioconnections, Wetherby, England), also known as Brazier's medium, was added to 100 mL SDW for every 100 mL of agar needed. This was then sterilised for 15 minutes at 121° C. Once sterilised the molten agar was cooled to 50° C. in a water-bath and 4 mL of egg-yolk emulsion (S2073; TCS Biosciences Ltd, Buckingham, United Kingdom) and 1 mL of lysed defibrinated horse blood (HB035; TCS Biosciences Ltd, Buckingham, United Kingdom) were also added for every 100 mL needed. Horse blood lysis is achieved by dilution to half concentration with SDW; when fully lysed the mixture will turn dark red in colour.
(§3) 18 mL agar was added to each universal and then poured into sterile Petri dishes. This step creates a 1/10 dilution resulting in agar plates of the required strength. Control plates for each set of strains were created by adding 18 mL of agar to 2 mL of SDW.
(§4) Suspensions of each bacterial species were prepared with a density equal to that of a 0.5 McFarland standard using a densitometer. All suspensions were made using sterile distilled water and fresh 18-20 hour cultures. As a 0.5 McFarland standard contains 1.5×10^8 CFU/mL and the multipoint inoculators applies 1 μL spots of liquid, each bacterial suspension was diluted 1/15 (20 μL suspension to 280 μL sterile distilled water).
(§5) Bacterial suspensions were prepared from fresh 18-24 hour cultures as previously described. 1 μL of each strain was inoculated onto all 100 agar plates containing a different chemical concentration and the 2 control plates. This was done using a multipoint inoculator which inoculates 20 strains per plate. All plates were incubated for 22 hours at 37° C. in aerobic conditions.
(§6) Each plate was examined for bacterial growth after 22 and 48 hours, with each being incubated in between examinations. A positive result was recorded as growth of ≧10 colonies. A negative result was recorded as growth of <10 colonies as this is equivalent to 99.9% inhibition. The lowest concentration of chemical that inhibited growth was recorded as the MIC. The results are recorded in Table IV below, where the numbers are quoted in mmol/L.
(§7) Given the positive performance of the ethoxylates of lauryl alcohol in reducing the MIC for a number of the micro-organisms tested, further MIC testing of Laureth-1 [C12E1] through to Laureth-8 [C12E8] was conducted on each of the following: • 10 strains of vancomycin-resistant enterococci (VRE)—listed in Table V below; and • 20 strains of methicillin-resistant Staphylococcus aureus (MRSA)—listed in Table VI.
(§8) The alkanol, alkanol derivatives, agar plates, and inocula were all prepared in the same way as described above.
(§9) The plates were examined in the same manner as described above and the results are recorded in Table VII below, where the numbers are quoted in mmol/L.

SMILES	MIC [µM]
CCCCCCCCCCCCOCCOCCOCCOCCOCCOCCO [L6, Hexaethylene Glycol Monododecyl Ether]	> 880

Same assay, conditions: 48 hrs

SMILES	MIC [µM]
CCCCCCCCCCCCOCCOCCOCCOCCOCCOCCO [L6, Hexaethylene Glycol Monododecyl Ether]	> 880

System: MRSA FRA 920
Experiment: MIC agar dilution, MRSA strain 38
Type: cell-based
Settings: Staphylococcus aureus, 22 hrs
Description: as §1, §2, §3, §4, §5, §6, §7, §8, §9

SMILES	MIC [µM]
CCCCCCCCCCCCOCCOCCOCCOCCOCCOCCO [L6, Hexaethylene Glycol Monododecyl Ether]	220 (≈ 99.1 µg/mL)

Same assay, conditions: Staphylococcus aureus, 48 hrs

SMILES	MIC [µM]
CCCCCCCCCCCCOCCOCCOCCOCCOCCOCCO [L6, Hexaethylene Glycol Monododecyl Ether]	220 (≈ 99.1 µg/mL)

System: Candida glabrata
Experiment: MIC agar dilution, micro-organism 20 (3943)
Type: cell-based
Settings: Nakaseomyces glabratus, 22 h, Candida glabrata 3943; 22 hrs; read-out: MIC
Outline: (§10)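 Agar dilution in Isosensitest/CCEY agar with egg yolk and lysed horse blood; compounds as aqueous emulsions (myristyl and lauryl alcohol with 1-methyl-2-pyrrolidone and Tween 20). 1 µL spots of 1/15-diluted 0.5 McFarland suspensions, 37 °C aerobic, read at 22 and 48 h; MIC (mmol/L) is lowest concentration giving <10 colonies.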

SMILES	MIC [µM]
CCCCCCCCCCCCOCCOCCOCCOCCOCCOCCO [L6, Hexaethylene Glycol Monododecyl Ether]	220 (≈ 99.1 µg/mL)

Same assay, conditions: Nakaseomyces glabratus, 48 h, Candida glabrata 3943; 48 hrs; read-out: MIC

SMILES	MIC [µM]
CCCCCCCCCCCCOCCOCCOCCOCCOCCOCCO [L6, Hexaethylene Glycol Monododecyl Ether]	220 (≈ 99.1 µg/mL)

System: Staphylococcus epidermidis
Experiment: MIC agar dilution, micro-organism 14 (11047)
Type: cell-based
Settings: Staphylococcus epidermidis 11047; 22 hrs; read-out: MIC
Outline: as §10

SMILES	MIC [µM]
CCCCCCCCCCCCOCCOCCOCCOCCOCCOCCO [L6, Hexaethylene Glycol Monododecyl Ether]	110 (≈ 49.6 µg/mL)

Same assay, conditions: Staphylococcus epidermidis 11047; 48 hrs; read-out: MIC

SMILES	MIC [µM]
CCCCCCCCCCCCOCCOCCOCCOCCOCCOCCO [L6, Hexaethylene Glycol Monododecyl Ether]	110 (≈ 49.6 µg/mL)

System: MRSA EMRSA 16 03732/95
Experiment: MIC agar dilution, MRSA strain 45
Type: cell-based
Settings: Staphylococcus aureus, 22 hrs
Description: as §1, §2, §3, §4, §5, §6, §7, §8, §9

SMILES	MIC [µM]
CCCCCCCCCCCCOCCOCCOCCOCCOCCOCCO [L6, Hexaethylene Glycol Monododecyl Ether]	220 (≈ 99.1 µg/mL)

Same assay, conditions: Staphylococcus aureus, 48 hrs

SMILES	MIC [µM]
CCCCCCCCCCCCOCCOCCOCCOCCOCCOCCO [L6, Hexaethylene Glycol Monododecyl Ether]	220 (≈ 99.1 µg/mL)

System: MRSA EMRSA 16 21354/95
Experiment: MIC agar dilution, MRSA strain 44
Type: cell-based
Settings: Staphylococcus aureus, 22 hrs
Description: as §1, §2, §3, §4, §5, §6, §7, §8, §9

SMILES	MIC [µM]
CCCCCCCCCCCCOCCOCCOCCOCCOCCOCCO [L6, Hexaethylene Glycol Monododecyl Ether]	220 (≈ 99.1 µg/mL)

Same assay, conditions: Staphylococcus aureus, 48 hrs

SMILES	MIC [µM]
CCCCCCCCCCCCOCCOCCOCCOCCOCCOCCO [L6, Hexaethylene Glycol Monododecyl Ether]	440 (≈ 198 µg/mL)

System: Enterococcus faecalis (VRE) MB 726
Experiment: MIC agar dilution, VRE strain 28
Type: cell-based
Settings: 22 hrs
Description: as §1, §2, §3, §4, §5, §6, §7, §8, §9

SMILES	MIC [µM]
CCCCCCCCCCCCOCCOCCOCCOCCOCCOCCO [L6, Hexaethylene Glycol Monododecyl Ether]	> 880

Same assay, conditions: 48 hrs

SMILES	MIC [µM]
CCCCCCCCCCCCOCCOCCOCCOCCOCCOCCO [L6, Hexaethylene Glycol Monododecyl Ether]	> 880

System: Steptococcus pyogenes
Experiment: MIC agar dilution, micro-organism 11 (8306)
Type: cell-based
Settings: 22 h, Steptococcus pyogenes 8306; 22 hrs; read-out: MIC
Outline: as §10

SMILES	MIC [µM]
CCCCCCCCCCCCOCCOCCOCCOCCOCCOCCO [L6, Hexaethylene Glycol Monododecyl Ether]	≤ 50

Same assay, conditions: 48 h, Steptococcus pyogenes 8306; 48 hrs; read-out: MIC

SMILES	MIC [µM]
CCCCCCCCCCCCOCCOCCOCCOCCOCCOCCO [L6, Hexaethylene Glycol Monododecyl Ether]	≤ 50

System: Listeria monocytogenes
Experiment: MIC agar dilution, micro-organism 15 (11994)
Type: cell-based
Settings: Listeria monocytogenes 11994; 22 hrs; read-out: MIC
Outline: as §10

SMILES	MIC [µM]
CCCCCCCCCCCCOCCOCCOCCOCCOCCOCCO [L6, Hexaethylene Glycol Monododecyl Ether]	110 (≈ 49.6 µg/mL)

Same assay, conditions: Listeria monocytogenes 11994; 48 hrs; read-out: MIC

SMILES	MIC [µM]
CCCCCCCCCCCCOCCOCCOCCOCCOCCOCCO [L6, Hexaethylene Glycol Monododecyl Ether]	110 (≈ 49.6 µg/mL)

System: Enterococcus faecium (VRE) MB 3137
Experiment: MIC agar dilution, VRE strain 26
Type: cell-based
Settings: 22 hrs
Description: as §1, §2, §3, §4, §5, §6, §7, §8, §9

SMILES	MIC [µM]
CCCCCCCCCCCCOCCOCCOCCOCCOCCOCCO [L6, Hexaethylene Glycol Monododecyl Ether]	880 (≈ 397 µg/mL)

Same assay, conditions: 48 hrs

SMILES	MIC [µM]
CCCCCCCCCCCCOCCOCCOCCOCCOCCOCCO [L6, Hexaethylene Glycol Monododecyl Ether]	> 880

System: Enterococcus casseliflavus (VRE) Clin waste
Experiment: MIC agar dilution, VRE strain 23
Type: cell-based
Settings: 22 hrs
Description: as §1, §2, §3, §4, §5, §6, §7, §8, §9

SMILES	MIC [µM]
CCCCCCCCCCCCOCCOCCOCCOCCOCCOCCO [L6, Hexaethylene Glycol Monododecyl Ether]	220 (≈ 99.1 µg/mL)

Same assay, conditions: 48 hrs

SMILES	MIC [µM]
CCCCCCCCCCCCOCCOCCOCCOCCOCCOCCO [L6, Hexaethylene Glycol Monododecyl Ether]	220 (≈ 99.1 µg/mL)

System: MRSA EMRSA 15 19972/98
Experiment: MIC agar dilution, MRSA strain 39
Type: cell-based
Settings: Staphylococcus aureus, 22 hrs
Description: as §1, §2, §3, §4, §5, §6, §7, §8, §9

SMILES	MIC [µM]
CCCCCCCCCCCCOCCOCCOCCOCCOCCOCCO [L6, Hexaethylene Glycol Monododecyl Ether]	110 (≈ 49.6 µg/mL)

Same assay, conditions: Staphylococcus aureus, 48 hrs

SMILES	MIC [µM]
CCCCCCCCCCCCOCCOCCOCCOCCOCCOCCO [L6, Hexaethylene Glycol Monododecyl Ether]	110 (≈ 49.6 µg/mL)

System: Enterococcus faecalis (VRE) PHLS URINE 2000
Experiment: MIC agar dilution, VRE strain 21
Type: cell-based
Settings: 22 hrs
Description: as §1, §2, §3, §4, §5, §6, §7, §8, §9

SMILES	MIC [µM]
CCCCCCCCCCCCOCCOCCOCCOCCOCCOCCO [L6, Hexaethylene Glycol Monododecyl Ether]	220 (≈ 99.1 µg/mL)

Same assay, conditions: 48 hrs

SMILES	MIC [µM]
CCCCCCCCCCCCOCCOCCOCCOCCOCCOCCO [L6, Hexaethylene Glycol Monododecyl Ether]	220 (≈ 99.1 µg/mL)
